Earlier results on two molecules are cited in patent US20240384361A1, “LONG-TERM SURROGATE VIRUS ASSAYS AND METHODS” (priority 2021, published 2024).

SMILES strings stand for the structures.

In data set [1] the test system is ASFV.
The test system of data set [2] is ASFV. The source holds these as a separate data set.

`CCCCCCCCCCCC(=O)OCC(O)CO` (centres unmarked) [glycerol monolaurate]: in the data set on ASFV [1], the “ASFV infectivity in feed matrices” value is “reduce ASFV infectivity”. Take `O=C(O)CC(O)(CC(=O)O)C(=O)O` [citric acid]: the “virus inactivation on wood surfaces” value in the data set with ASFV [2] was “completely inactivated”.
